From PMC9135253, “Potential of phenothiazines to synergistically block calmodulin and reactivate PP2A in cancer cells” (PLoS ONE, 2022)
Several values for one entry are separate records, joined by “and”; a condition that tells them apart may be missing. Equal entries are not always repeated. Where two headings read alike, the source gives them in different places.

Legend:
Type in all cases: cell-based
MDA-MB-231 cells [1] = assay: Flow cytometry-based apoptosis assay (Annexin V-FITC / 7-AAD); details: DT-061 10 μM, calmidazolium 5 μM or combination, 24 h
Protocol: MDA-MB-231 cells were grown for 24 h in complete RPMI medium. The next day the cells were treated with inhibitors for 24 h. […] The cells were labelled using the Annexin V-FITC / 7-AAD apoptosis-detection kit (Beckman-Coulter, cat. no. B60224-AB) according to the manufacturer’s instruction.
(§1) Negative values (shaded red) indicate sensitivity of the cell line proliferation to the knockdown of shown genes, whereas positive scores (shaded blue) indicate insensitivity. (B) IC50 values for indicated compounds in Ras pathway mutant cell lines NCI-H358, MDA-MB231 and A375 grown as 3D spheroids under serum free conditions. […] Statistical comparisons were done using the average values across all three cell lines. […] Positive scores indicate synergistic drug interactions whereas negative scores would denote antagonistic drug interactions. A score of zero would indicate no antagonistic or synergistic effect. (D) Flow cytometric analysis of apoptosis in MDA-MB-231 cells. […] Benzethonium chloride and DMSO treated cells were used as positive and negative controls, respectively, for setting the gates. Percentage of total apoptotic cells (early and late stage) from two biological repeats (mean ± SD) is presented. Statistical analysis was performed using Fisher’s exact test comparing the total number of viable and apoptotic cells from two biological repeats. (E) Effect of inhibitors on cellular apoptosis studied using Caspase-3/7Glo assay. […] The caspase-3/7 activity was measured as a luminescence read-out and normalized to the vehicle control, 0.05% (v/v) DMSO. […] GAPDH detection was used as loading control.

[2] = system: A375 (BRAF-V600E) 3D spheroids; assay: 3D spheroid formation assay (alamarBlue), A375
Protocol: (§2) 3D spheroid formation assays were performed in 96-well low-attachment, suspension culture plates (cat. no. 655185, Cellstar, Greiner Bio-One) under serum free conditions. About 1000 cells per well were seeded in 50 μL RPMI medium (cat. no. 52400–025, Gibco, ThermoFisher Scientific) containing 0.5% (v/v) MethoCult (cat. no. SF H4636, Stemcell technologies), 1X B27 (cat. no. 17504044, Gibco, ThermoFisher Scientific), 25 ng/mL EGF (cat. no. E9644, Sigma-Aldrich) and 25 ng/ mL FGF (cat. no. RP-8628, ThermoFisher Scientific). Cells were cultured for 3 days and then treated with compounds or vehicle control (DMSO 0.1% (v/v) in growth medium) for another 3 days. The cells were supplemented with fresh growth medium on the third day together with the drug treatment. Spheroid formation efficiency was analyzed by alamarBlue assay reagent (cat. no. DAL1100, ThermoFisher Scientific).
(§3) A 10% (v/v) final volume of alamarBlue reagent was added to each well of the plate and incubated for 4 h at 37°C. Then the fluorescence intensity (λexcitation 560 ± 5 nm and λemission 590 ± 5 nm) was measured using the FLUOstar OPTIMA plate reader (BMG Labtech, Germany).
as §1, with “(A) Heatmap of ATARiS gene sensitivity scores of two KRAS dependent cell lines (NCI-H358 and MDA-MB-231) and a BRAF dependent cell line (A375). Negative” for “Negative”

[3] = system: NCI-H358 (KRAS-G12C) 3D spheroids; assay: 3D spheroid formation assay (alamarBlue), NCI-H358
Protocol: as §2, §3
as §1, with “(A) Heatmap of ATARiS gene sensitivity scores of two KRAS dependent cell lines (NCI-H358 and MDA-MB-231) and a BRAF dependent cell line (A375). Negative” for “Negative”

[4] = system: MDA-MB-231 (KRAS-G13D) 3D spheroids; assay: 3D spheroid formation assay (alamarBlue), MDA-MB-231
Protocol: as §2, §3
as §1, with “(A) Heatmap of ATARiS gene sensitivity scores of two KRAS dependent cell lines (NCI-H358 and MDA-MB-231) and a BRAF dependent cell line (A375). Negative” for “Negative”

MDA-MB-231 cells [5] = assay: 2D cell viability assay (alamarBlue), MDA-MB-231; details: MDA-MB-231, 72 h
MIA PaCa-2 cells = assay: 2D cell viability assay (alamarBlue), MIA PaCa-2; details: MIA PaCa-2, 72 h
HEK-293 EBNA cells = assay: 2D cell viability assay (alamarBlue), HEK-293 EBNA; details: 72 h
[6] = system: H-RasG12V (Rluc8-/GFP2-tagged) in HEK-293 EBNA cells; assay: H-RasG12V nanoclustering-BRET assay; details: for H-RasG12V BRET: compounds 20 μM, FTI-277 1 μM, OphA 2.5 μM, 24 h
[7] = system: K-RasG12V (Rluc8-/GFP2-tagged) in HEK-293 EBNA cells; assay: K-RasG12V nanoclustering-BRET assay; details: for K-RasG12V BRET: compounds 20 μM, FTI-277 1 μM, OphA 2.5 μM, 24 h
[8] = system: pERK/ERK in MIA PaCa-2 cells; assay: Western blot of MAPK signaling output (pERK/ERK); details: for potency relative to Flu-M in MAPK-signaling (pERK) inhibition: MIA PaCa-2; for normalized pERK/ERK ratio %: MIA PaCa-2 + EGF
[9] = early and late stage, replicates N1, N2
[10] = Homo sapiens, A-375, 72 h, A375 3D spheroids, serum free, 3 days treatment, replicates N1, N2
[11] = Homo sapiens, A-375, A375 3D spheroids, Mean, n = 2
[12] = A375 3D spheroids, serum free, 3 days treatment, replicates N1, N2
[13] = Homo sapiens, NCI-H358, NCI-H358 3D spheroids, Mean, n = 2, read-out: IC50 values
[14] = NCI-H358 3D spheroids, serum free, 3 days treatment, replicates N1, N2, read-out: IC50 values
[15] = Homo sapiens, MDA-MB-231, MDA-MB-231 3D spheroids, Mean, n = 2, read-out: IC50 values
[16] = MDA-MB-231 3D spheroids, serum free, 3 days treatment, replicates N1, N2, read-out: IC50 values
[17] = H-RasG12V nanoclustering-BRET dose response (0.1–80 μM; OphA 0.3–20 μM), replicates
[18] = H-RasG12V nanoclustering-BRET, mean
[19] = A/D plasmid ratio 4/1, individual replicates N1.1-N2.4
[20] = K-RasG12V nanoclustering-BRET dose response (0.1–80 μM; OphA 0.3–20 μM), replicates
[21] = K-RasG12V nanoclustering-BRET, mean
[22] = A/D plasmid ratio 4/1, individual replicates N1.1-N3.4
[23] = 2 h, trametinib 1 μM, AMG-510 1 μM, calmidazolium 20 μM, DT-061 20 μM, combination each 10 μM, fluphenazine mustard 20 μM, replicates N1-N3

CC(C)(C)CC(C)(C)c1ccc(OCCOCC[N+](C)(C)Cc2ccccc2)cc1 [benzethonium Cl, Benzethonium chloride]
apoptotic cells (%) (MDA-MB-231 cells [1]; [9]): 93.0493% and 96.0998%
apoptotic cells (%) (MDA-MB-231 cells [1]; mean): 94.57%

C=CC(=O)N1CCN(c2ncnc3c(F)c(-c4c(O)cccc4F)c(Cl)cc23)CC1 [ARS-1620]
IC50 [2, 10]: > 40000 nM
IC50 [2, 11]: > 40000 nM
IC50 ([3]; Homo sapiens, NCI-H358, 72 h, read-out: IC50 values, NCI-H358 3D spheroids, serum free, 3 days treatment, replicates N1, N2): 600 nM
IC50 ([3]; Homo sapiens, NCI-H358, read-out: IC50 values, NCI-H358 3D spheroids, Mean, n = 2): 460 nM
IC50 ([3]; read-out: IC50 values, NCI-H358 3D spheroids, serum free, 3 days treatment, replicates N1, N2): 320 nM
IC50 ([4]; Homo sapiens, MDA-MB-231, 72 h, read-out: IC50 values): > 40000 nM
IC50 ([4]; Homo sapiens, MDA-MB-231, read-out: IC50 values): > 40000 nM

CN1CCN(CCCN2c3ccccc3Sc3ccc(C(F)(F)F)cc32)CC1 [triflouperazine, trifluoperazine]
IC50 [2, 12]: 360 nM
IC50 [2, 10]: 250 nM
IC50 [2, 11]: 310 nM
IC50 [3, 13]: 690 nM
IC50 [3, 14]: 390 nM and 980 nM
IC50 ([4]; Homo sapiens, MDA-MB-231, 72 h, MDA-MB-231 3D spheroids, serum free, 3 days treatment, replicates N1, N2, read-out: IC50 values): 430 nM
IC50 [4, 15]: 590 nM
IC50 [4, 16]: 740 nM

OCCN1CCN(CCCN2c3ccccc3Sc3ccc(C(F)(F)F)cc32)CC1 [fluphenazine]
2D monolayer DSS3 (MDA-MB-231 cells [5]; Mean): 28.4
2D monolayer DSS3 (MDA-MB-231 cells [5]; replicates N1-N3): 26.6 and 29.8 and 28.8
2D monolayer DSS3 (MIA PaCa-2 cells; Mean): 46.37
2D monolayer DSS3 (MIA PaCa-2 cells; replicates N1-N3): 33.6 and 46.1 and 59.4
2D monolayer DSS3 (HEK-293 EBNA cells; Mean): 9.5
2D monolayer DSS3 (HEK-293 EBNA cells; replicates N1-N3): 9.9 and 9.2 and 9.4
DSS3 BRET score [6, 17]: 0
DSS3 BRET score [6, 18]: 0
H-RasG12V BRET [6, 19]: 118.298 and 116.824 and 118.266 and 116.921 and 102.254 and 101.937 and 104.771 and 99.5349
H-RasG12V BRET ([6]; mean): 109.85
effect on the RasG12V-BRET signals (in words) ([7]; K-RasG12V and H-RasG12V biosensors): Neither the PP2A activator DT-061, nor Flu had an effect
DSS3 BRET score [7, 20]: 0
DSS3 BRET score [7, 21]: 0
K-RasG12V BRET [7, 22]: 116.984 and 104.752 and 101.237 and 99.6761 and 117.221 and 114.254 and 111.203 and 106.486 and 102.332 and 104.758 and 105.192 and 105.738
K-RasG12V BRET ([7]; mean): 107.49

COC(=O)[C@H](CCSC)NC(=O)c1ccc(NC[C@@H](N)CS)cc1-c1ccccc1 [FTI-277]
H-RasG12V BRET [6, 19]: 55.9675 and 54.6788 and 57.991 and 55.5016 and 58.8518 and 57.6476 and 60.7427 and 58.4164
H-RasG12V BRET ([6]; mean): 57.47
K-RasG12V BRET [7, 22]: 72.2368 and 88.8749 and 88.6228 and 90.7219 and 73.1065 and 73.006 and 71.9005 and 74.3032 and 75.1082 and 75.0152 and 73.992 and 87.4754
K-RasG12V BRET ([7]; mean): 78.7

CC(C)=C[C@H]1C[C@H](C)[C@]2(CC[C@]3(C)C[C@H]4[C@H](C(=O)C[C@@]4(C)O)/C(C=O)=C\C[C@H]32)O1 [ophiobolin A]
DSS3 BRET score [6, 17]: 7.5 and 2.2
DSS3 BRET score [6, 18]: 4.85
H-RasG12V BRET ([6]; mean): 87.26
DSS3 BRET score [7, 20]: 21.8 and 20.9
DSS3 BRET score [7, 21]: 21.35
K-RasG12V BRET ([7]; mean): 75.39

CC(=O)Nc1cccc(-n2c(=O)n(C3CC3)c(=O)c3c(Nc4ccc(I)cc4F)n(C)c(=O)c(C)c32)c1 [trametinib]
potency relative to Flu-M in MAPK-signaling (pERK) inhibition [8]: at least 20 times
normalized pERK/ERK ratio % [8, 23]: 32.0097% and 10.8438% and 18.176%
normalized pERK/ERK ratio % ([8]; same treatments, mean): 20.34%

C=CC(=O)N1CCN(c2nc(=O)n(-c3c(C)ccnc3C(C)C)c3nc(-c4c(O)cccc4F)c(F)cc23)[C@@H](C)C1 [AMG-510]
2D monolayer DSS3 (MDA-MB-231 cells [5]; Mean): 4.2
2D monolayer DSS3 (MDA-MB-231 cells [5]; replicates N1-N3): 1.7 and 3 and 7.9
2D monolayer DSS3 (MIA PaCa-2 cells; Mean): 64.97
2D monolayer DSS3 (MIA PaCa-2 cells; replicates N1-N3): 62.6 and 65 and 67.3
2D monolayer DSS3 (HEK-293 EBNA cells; Mean): 15.93
2D monolayer DSS3 (HEK-293 EBNA cells; replicates N1-N3): 22.8 and 12.8 and 12.2
potency relative to Flu-M in MAPK-signaling (pERK) inhibition [8]: at least 20 times
normalized pERK/ERK ratio % [8, 23]: 29.0898% and 30.5706% and 27.2049%
normalized pERK/ERK ratio % ([8]; same treatments, mean): 28.96%

Clc1ccc(C(c2ccc(Cl)cc2)n2cc[n+](CC(OCc3ccc(Cl)cc3Cl)c3ccc(Cl)cc3Cl)c2)cc1 (stereo not shown) [calmidazolium]
IC50 [2, 12]: 1510 nM
IC50 [2, 10]: 1100 nM
IC50 [2, 11]: 1310 nM
IC50 ([3]; Homo sapiens, NCI-H358, 72 h, NCI-H358 3D spheroids, serum free, 3 days treatment, replicates N1, N2, read-out: IC50 values): 1300 nM
IC50 [3, 13]: 1300 nM
IC50 [3, 14]: 1290 nM
apoptotic cells (%) (MDA-MB-231 cells [1]; [9]): 46.8015% and 19.4293%
apoptotic cells (%) (MDA-MB-231 cells [1]; mean): 33.12%
IC50 [4, 15]: 1370 nM
IC50 [4, 16]: 830 nM and 1900 nM
normalized pERK/ERK ratio % ([8]; 2 h, trametinib 1 μM, AMG-510 1 μM, calmidazolium 20 μM, DT-061 20 μM, combination each 10 μM, fluphenazine mustard 20 μM, replicates N1-N3, listed as camidazolium): 79.2728% and 51.9352% and 71.8958%
DSS3 BRET score [6, 17]: 4.1 and 3.4
DSS3 BRET score [6, 18]: 3.75
H-RasG12V BRET [6, 19]: 65.4602 and 65.6531 and 66.0593 and 64.447 and 71.623 and 67.855 and 69.3028 and 69.9269
H-RasG12V BRET ([6]; mean): 67.54
DSS3 BRET score [7, 20]: 7.4 and 5.3 and 6.1
DSS3 BRET score [7, 21]: 6.27
K-RasG12V BRET [7, 22]: 56.1219 and 37.0972 and 36.7653 and 36.0615 and 56.3093 and 55.7392 and 55.8068 and 41.7975 and 44.4475 and 43.3047 and 43.8108 and 37.7034
K-RasG12V BRET ([7]; mean): 45.41
